Measured values as given in article PMC5609566, “Elucidation of antimicrobial activity and mechanism of action by N-substituted carbazole derivatives” (Bioorganic & Medicinal Chemistry Letters, 2017).
≈ marks a conversion by molar mass, not a printed value.

Legend:
S. cerevisiae H^+-ATPase = target: T1, S. cerevisiae H^+-ATPase (Saccharomyces cerevisiae, UniProt P05030); assay: Colorimetric ATPase assay (ATP hydrolysis), S. cerevisiae plasma membranes; type: biochemical; settings: for IC50: pH 7, n = 3
T1 construct: transformed with the full-length cDNA of the S. cerevisiae plasma membrane H^+-ATPase isoform PMA1; made in house; host or cells: S. cerevisiae RS72
T1 sequence (P05030 whole entry, canonical isoform): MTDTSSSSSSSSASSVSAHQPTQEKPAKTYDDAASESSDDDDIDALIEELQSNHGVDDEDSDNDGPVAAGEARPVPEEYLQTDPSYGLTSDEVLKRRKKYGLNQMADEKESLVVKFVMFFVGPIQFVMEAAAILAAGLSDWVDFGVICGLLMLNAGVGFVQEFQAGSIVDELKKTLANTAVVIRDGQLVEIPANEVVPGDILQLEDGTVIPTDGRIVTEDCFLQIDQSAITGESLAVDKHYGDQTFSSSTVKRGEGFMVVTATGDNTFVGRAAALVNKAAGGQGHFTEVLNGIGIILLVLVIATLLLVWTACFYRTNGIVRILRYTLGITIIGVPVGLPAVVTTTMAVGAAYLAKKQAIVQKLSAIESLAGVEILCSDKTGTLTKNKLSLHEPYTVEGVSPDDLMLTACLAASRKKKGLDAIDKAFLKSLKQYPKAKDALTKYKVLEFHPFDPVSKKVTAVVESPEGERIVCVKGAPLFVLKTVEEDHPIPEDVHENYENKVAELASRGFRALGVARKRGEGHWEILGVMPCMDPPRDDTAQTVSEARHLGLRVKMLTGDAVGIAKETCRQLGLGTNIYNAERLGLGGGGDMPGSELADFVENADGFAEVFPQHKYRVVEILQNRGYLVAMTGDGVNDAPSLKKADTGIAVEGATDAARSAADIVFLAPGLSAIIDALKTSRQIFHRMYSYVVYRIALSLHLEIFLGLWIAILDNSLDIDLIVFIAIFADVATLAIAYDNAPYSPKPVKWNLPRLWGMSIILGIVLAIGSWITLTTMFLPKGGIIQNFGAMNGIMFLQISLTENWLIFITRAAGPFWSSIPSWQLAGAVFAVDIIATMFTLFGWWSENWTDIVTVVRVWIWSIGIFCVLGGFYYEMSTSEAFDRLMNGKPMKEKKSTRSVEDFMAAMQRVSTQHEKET
Description: (§1) To investigate the H^+-ATPase inhibitory effect of the compounds we isolated plasma membranes containing H^+-ATPase from S. cerevisiae and C. albicans cells.[15] Plasma membranes isolated from pig kidney as well as endoplasmic reticulum membranes from rabbit hind leg muscle were used to counter-screen compounds for activity against mammalian Na^+,K^+-ATPase and Ca^2+-ATPase, respectively. Prior to their use, fungal plasma membrane batches were validated by determining the maximum ATP hydrolysis activity, the pH optimum of the ATPase activity, and the sensitivity to inhibition by orthovanadate. ATPase activity was determined by a colorimetric assay that measures the amount of inorganic phosphate liberated over time, as described in Kjellerup et al., 2017.[15] Table 2, Table 3, Table 4 list the IC50 values obtained by measuring the concentration dependence of the ATPase activity for the fifteen carbazole compounds with each of the four membrane preparations.
(§2) Pma1-containing plasma membranes were prepared from S. cerevisiae RS72 yeast cells that had been transformed with the full-length cDNA of the S. cerevisiae plasma membrane H^+-ATPase isoform PMA1 under control of the PMA1 promoter, using the same procedure as described in Kongstad et al., 2014^1. For the preparation of C. albicans membranes, a 100 ml overnight culture grown in YPD (10 g/L yeast extract (BD, Sparks, MD), 20 g/L Bacto peptone (BD), 20 g/L D-(+)-glucose) was transferred to 1 L YPD and grown for a further 7 h at RT with agitation (150 rpm), followed by cell harvesting and subsequent membrane preparation using the same procedure as described in Kongstad et al., 2014^1. […] Rabbit sarcoplasmic reticulum membranes containing Sarco/Endoplasmic Reticulum Ca^2+ ATPase (SERCA) were kindly provided by Dr. Claus E. Olesen and Dr. Jesper V. Møller, Aarhus University and prepared as described in Andersen et al., 1985^2. Pig kidney Na^+,K^+-ATPase was kindly provided by Dr. Natalya Fedosova, Aarhus University and prepared as described in Klodos et al., 2002^3.
(§3) The compound libraries were purchased from Enamine Ltd, Ukraine and Chembridge Corp, USA. ATPase activity was determined by measuring the amount of liberated phosphate from ATP hydrolysis. […] Reactions were initiated by the addition of Na-ATP to a final concentration of 2.5 mM (Pma1 and Na^+,K^+-ATPase) or 5 mM (SERCA), followed by 30 minutes incubation at 30 °C. The amount of liberated phosphate was determined colorimetrically after addition of STOP solution (mixture of L-ascorbic acid, ammonium heptamolybdate tetrahydrate, and HCl to give final concentrations of 65 mM, 2.2 mM, and 189 mM, respectively) with 5 minutes incubation at room temperature (RT) followed by addition of arsenite solution (mixture of NaAsO2, sodium citrate dihydrate, and acetic acid to give final concentrations of 3.1 mM, 28 mM, and 141 mM, respectively). Absorption was measured at 860 nm after an additional 30 minutes incubation at RT.

C. albicans H^+-ATPase = target: T2, C. albicans H^+-ATPase (Candida albicans, UniProt P28877); assay: Colorimetric ATPase assay (ATP hydrolysis), C. albicans membranes; type: biochemical; settings: pH 7, n = 3
T2 construct: endogenous in cells; host or cells: C. albicans culture grown in YPD; microsomal membrane preparation
T2 sequence (P28877 whole entry): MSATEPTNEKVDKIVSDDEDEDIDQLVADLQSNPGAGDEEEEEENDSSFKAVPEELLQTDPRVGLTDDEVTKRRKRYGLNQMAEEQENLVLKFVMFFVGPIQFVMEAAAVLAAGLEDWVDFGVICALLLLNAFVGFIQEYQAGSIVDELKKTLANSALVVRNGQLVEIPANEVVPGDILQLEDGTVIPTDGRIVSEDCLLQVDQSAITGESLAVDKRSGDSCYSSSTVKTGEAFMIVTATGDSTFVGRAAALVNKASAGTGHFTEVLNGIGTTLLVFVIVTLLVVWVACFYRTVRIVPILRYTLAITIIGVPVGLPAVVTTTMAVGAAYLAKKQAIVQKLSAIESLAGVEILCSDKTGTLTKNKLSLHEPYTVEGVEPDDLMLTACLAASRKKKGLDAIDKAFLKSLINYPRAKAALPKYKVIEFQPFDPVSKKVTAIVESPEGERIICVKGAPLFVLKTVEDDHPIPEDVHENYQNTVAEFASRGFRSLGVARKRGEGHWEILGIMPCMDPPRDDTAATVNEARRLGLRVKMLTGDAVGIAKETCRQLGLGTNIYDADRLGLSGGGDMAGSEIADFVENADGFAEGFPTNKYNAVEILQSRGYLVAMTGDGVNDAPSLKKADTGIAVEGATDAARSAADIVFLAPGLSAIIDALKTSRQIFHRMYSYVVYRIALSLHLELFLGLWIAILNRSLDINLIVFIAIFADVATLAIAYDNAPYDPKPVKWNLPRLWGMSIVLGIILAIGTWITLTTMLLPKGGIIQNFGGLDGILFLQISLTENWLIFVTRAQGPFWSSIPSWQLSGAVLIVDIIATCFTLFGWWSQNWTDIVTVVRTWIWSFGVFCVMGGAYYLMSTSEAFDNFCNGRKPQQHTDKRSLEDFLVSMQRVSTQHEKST
Description: as §1, §2, §3

[1] = tested on: Aspergillus flavus ATCC MYA-1005; assay: Mold growth inhibition; type: cell-based; settings: Aspergillus flavus ATCC MYA-1005, n=3; read-out: Fungal Growth Inhibition MIC
Description: (§4) We subsequently assessed the carbazole series for antifungal activity, as described in Kjellerup et al., 2017.[15] Table 2, Table 3, Table 4, Table 5 list the minimum inhibitory concentrations (MIC) and the minimum fungicidal concentrations (MFC) of the fifteen compounds tested against the yeasts Saccharomyces cerevisiae, Candida albicans, C. krusei, and two isolates of C. glabrata (a wild-type strain ATCC 90030 and a clinical azole-resistant isolate Cg003 with increased efflux pump expression[19]), and the molds Aspergillus fumigatus and A. flavus. MIC was defined as the lowest concentration inhibiting visual growth of the microorganism in RPMI-1640 media. […] However, in several cases antifungal activity against molds was minimal, Table 5.
(§5) Compound hits from the library screening were evaluated against baker yeast S. cerevisiae and C. albicans (ATCC 90028). The minimum inhibitory concentration (MIC) was defined as the lowest concentration inhibiting visual growth of the microorganism and this was determined in triplicate. Standard errors were typically less than 5%. MICs for synthesized compounds were determined on the following fungal isolates: Saccharomyces cerevisiae (ATCC 9763), Candida albicans (SC5314), Candida krusei (ATCC 6258), Candida glabrata (ATCC 90030), Aspergillus flavus (ATCC MYA-1005) and Aspergillus fumigatus (ATCC 13073), which were purchased from American Type Culture Collection, and C. glabrata strain Cg003, which was kindly provided by Julius Subik, Comenius University in Bratislava, Slovak Republic. Cg003 is a clinical isolate, characterized to be resistant to fluconazole and itraconazole due to overexpression of the multidrug resistance efflux pumps Cdr1p and Cdr2p^5. The fungal growth assay was performed as described in Kjellerup et al., 2017^6.

[2] = tested on: Aspergillus fumigatus ATCC 13073; assay: Mold growth inhibition; type: cell-based; settings: ATCC13073; Aspergillus fumigatus ATCC 13073, n=3; read-out: Fungal Growth Inhibition MIC
Description: as §4, §5

[3] = tested on: Escherichia coli ATCC 25922; assay: Bacterial growth inhibition assay; type: cell-based; settings: ATCC25922; Escherichia coli ATCC 25922, n=3
Description: (§6) To further support the notion that the carbazole H^+-ATPase inhibitors were specific inhibitors of fungal growth, we tested the effect of all fifteen compounds on the growth of two bacterial species; the gram-positive Staphylococcus aureus and the gram-negative Escherichia coli. […] Compound 16 and 17 were interesting as they were potent inhibitors of the ATP hydrolysis in the enzymatic assay and potent H^+-ATPase inhibitors in whole fungal cell assay (iATP and extracellular acidification).
(§7) The bacterial strains used in this study were purchased from DSMZ, Germany. Bacteria cells were grown in Mueller-Hinton broth (MHB) to mid-exponential phase and freeze stocks were prepared at 1-2 × 10^8 CFU/mL in MHB and 20% glycerol and stored at -20 °C. These stocks were used to inoculate bacterial growth assays at a final concentration of 5 × 10^5 CFU/mL in MHB together with 1.5 % DMSO or compound in a 96-well plate and incubated for 16-29 h at 35 °C, whereafter growth was determined by reading at OD600. Kanamycin and ampicillin were used as positive control compounds. Experiments were performed at least twice and standard errors were typically less than 5 %.

[4] = tested on: Staphylococcus aureus ATCC 29213; assay: Bacterial growth inhibition assay; type: cell-based; settings: ATCC29213; Staphylococcus aureus ATCC 29213, n=3
Description: as §6, §7

Structure (SMILES) | IC50 (S. cerevisiae H^+-ATPase) | IC50 (C. albicans H^+-ATPase) | MIC [1] | MIC [2] | MIC [3] | MIC [4] | fold more potent H^+-ATPase inhibition than the parent compounds 1–4 (S. cerevisiae H^+-ATPase; IC50 ratio)
OC(Cn1ccnc1)Cn1c2ccc(Cl)cc2c2cc(Cl)ccc21 (stereo not shown) [Compound 5, 1-(3,6-dichloro-9H-carbazol-9-yl)-3-(1H-imidazol-1-yl)propan-2-ol] | 23 ± 12.3 µM | 19.3 ± 2.6 µM | > 75 µM | > 75 µM | > 75 µM | 7.5 µM (≈ 2.7 µg/mL) | 
OC(Cn1cncn1)Cn1c2ccc(Cl)cc2c2cc(Cl)ccc21 (stereo not shown) [Compound 6, 1-(3,6-dichloro-9H-carbazol-9-yl)-3-(1H-1,2,4-triazol-1-yl)propan-2-ol] | 7.4 ± 1.6 µM | 4 ± 1.2 µM | > 75 µM | > 75 µM | > 75 µM | 41 µM (≈ 14.8 µg/mL) | 
OC(CN1CCOCC1)Cn1c2ccc(Cl)cc2c2cc(Cl)ccc21 (stereo not shown) [Compound 7, 1-(3,6-dichloro-9H-carbazol-9-yl)-3-morpholinopropan-2-ol] | 6.9 ± 1.3 µM | 2.6 ± 0.4 µM | > 75 µM | > 75 µM | > 75 µM | 41 µM (≈ 15.6 µg/mL) | 
CN1CCN(CC(O)Cn2c3ccc(Cl)cc3c3cc(Cl)ccc32)CC1 (stereo not shown) [Compound 8, 1-(3,6-dichloro-9H-carbazol-9-yl)-3-(4-methylpiperazin-1-yl)propan-2-ol] | 52.7 ± 10.6 µM | 26.4 ± 2.5 µM | > 75 µM | 75 µM (≈ 29.4 µg/mL) | 75 µM (≈ 29.4 µg/mL) | 64 µM (≈ 25.1 µg/mL) | 
O=C(O)C1CCN(CC(O)Cn2c3ccc(Cl)cc3c3cc(Cl)ccc32)CC1 (stereo not shown) [Compound 9, 1-(3-(3,6-dichloro-9H-carbazol-9-yl)-2-hydroxypropyl)piperidine-4-carboxylic acid] | 107 ± 11.8 µM | 105 ± 13.9 µM | > 75 µM | > 75 µM | > 75 µM | 75 µM (≈ 31.6 µg/mL) | 
CCC(C)NCC(O)Cn1c2ccc(Cl)cc2c2cc(Cl)ccc21 (stereo not shown) [Compound 10, 1-(sec-butylamino)-3-(3,6-dichloro-9H-carbazol-9-yl)propan-2-ol] | 2 ± 0.2 µM | 1.1 ± 0.2 µM | 12 µM (≈ 4.38 µg/mL) | 3.7 µM (≈ 1.35 µg/mL) | 20 µM (≈ 7.31 µg/mL) | 2.9 µM (≈ 1.06 µg/mL) | ca. 9 fold
COc1ccc2c(c1)c1cc(OC)ccc1n2CC(O)CN1CCN(C)CC1 (stereo not shown) [Compound 11, 1-(3,6-dimethoxy-9H-carbazol-9-yl)-3-(4-methylpiperazin-1-yl)propan-2-ol] | > 167 µM | > 167 µM | > 75 µM | > 75 µM | > 75 µM | > 75 µM | 
CN1CCN(CC(O)Cn2c3ccc(C#N)cc3c3cc(C#N)ccc32)CC1 (stereo not shown) [Compound 12, 9-(2-hydroxy-3-(4-methylpiperazin-1-yl)propyl)-9H-carbazole-3,6-dicarbonitrile] | > 167 µM | 144 ± 14.7 µM | > 75 µM | > 75 µM | > 75 µM | > 75 µM | 
CN1CCN(CC(O)Cn2c3ccc(O)cc3c3cc(O)ccc32)CC1 (stereo not shown) [Compound 13, 9-(2-hydroxy-3-(4-methylpiperazin-1-yl)propyl)-9H-carbazole-3,6-diol] | > 167 µM | > 167 µM | > 75 µM | > 75 µM | > 75 µM | > 75 µM | 
CN(C)CCCn1c2ccc(Cl)cc2c2cc(Cl)ccc21 [Compound 14, 3-(3,6-dichloro-9H-carbazol-9-yl)-N,N-dimethyl-propan-1-amine] | 36.2 ± 3.1 µM | 23.3 ± 5.3 µM | > 75 µM | > 75 µM | 75 µM (≈ 24.1 µg/mL) | 7.5 µM (≈ 2.41 µg/mL) | 
CN(C)CCCCn1c2ccc(Cl)cc2c2cc(Cl)ccc21 [Compound 15] | 51.8 ± 0.5 µM | 31.1 ± 4.8 µM | 75 µM (≈ 25.1 µg/mL) | 24 µM (≈ 8.05 µg/mL) | 75 µM (≈ 25.1 µg/mL) | 24 µM (≈ 8.05 µg/mL) | 
CN1CCN(CCCn2c3ccc(Cl)cc3c3cc(Cl)ccc32)CC1 [Compound 16, 3,6-dichloro-9-(3-(4-methylpiperazin-1-yl)propyl)-9H-carbazole] | 20 ± 1 µM | 7.1 ± 0.5 µM | 24 µM (≈ 9.03 µg/mL) | 41 µM (≈ 15.4 µg/mL) | 75 µM (≈ 28.2 µg/mL) | 24 µM (≈ 9.03 µg/mL) | 
Clc1ccc2c(c1)c1cc(Cl)ccc1n2CCCN1CCOCC1 [Compound 18, 4-(3-(3,6-dichloro-9H-carbazol-9-yl)propyl)morpholine] | 11.1 ± 3.8 µM | 5.9 ± 1.7 µM | > 75 µM | > 75 µM | > 75 µM | > 75 µM | 
